In patent US6465492B1, “Heterocyclic compounds” (Sinon Corporation, priority 2001, dated 2002):

Tested on: aphids
Experiment: Biological test on aphid (spray on cabbage leaf in Petri dishes)
Assay type: in vivo
Details: for Number of dead aphids 1st: 1st Petri dish; for Number of dead aphids 1st / Number of dead aphids 2nd / Number of dead aphids 3rd / Number of dead aphids 4th: 20 aphids on cabbage leaf, 9.6% w/w pesticide reagent diluted 1000 times with water, sprayed, examined after 24 hours; for Number of dead aphids 2nd: 2nd Petri dish; for Number of dead aphids 3rd: 3rd Petri dish; for Number of dead aphids 4th: 4th Petri dish; for Number of dead aphids average: average of four Petri dishes
Protocol: 9.6 g of the compound (based on the active ingredient) obtained from Example 1 was blended with 90.4 g of a solvent to form a 9.6% w/w pesticide reagent An 8 cm×8 cm piece of cabbage leaf was placed on a lump of wetted cotton in each one of four Petri dishes. 20 aphids were subsequently put on the cabbage leaf in each one of the Petri dishes. The thus formed pesticide reagent was diluted 1000 times with water to form a diluted solution which was then sprayed onto the cabbage leaf in each one of the Petri dishes in a predetermined amount. The number of dead aphids in each one of the Petri dishes was examined after 24 hours.
Example 13 was repeated, except that the compound employed in Example 13 was replaced by the compound obtained from a respective one of the Examples 2 to 12.
Example 13 was repeated, except that the compound employed in Example 13 was replaced by imidachloprid which is a heterocyclic compound of the formula disclosed in U.S. Pat. No. 4,742,060.
Table 2 lists the effectiveness of the pesticide reagents prepared in Examples 13 to 24 and the Comparative Example 1.

[1] = 20 aphids each, 9.6% w/w reagent diluted 1000 times, after 24 hours

SMILES: Cc1ccc(S(=O)(=O)N=C2NCCCN2Cc2ccc(Cl)nc2)cc1 [Example 14, 3-(2-chloro-5-pyridylmethyl)-2-[(4-methylphenyl)sulfonylimino]tetrahydropyrimidine]
- Number of dead aphids 1st: 16
- Number of dead aphids 2nd: 17
- Number of dead aphids 3rd: 17
- Number of dead aphids 4th: 16
- Number of dead aphids average [1]: 16.5

SMILES: CS(=O)(=O)/N=C1\NCCN1Cc1ccc(Cl)nc1 [Example 15, 3-(2-chloro-5-pyridylmethyl)-2-[methylsulfonylimino] imidazolidine]
- Number of dead aphids 1st: 16
- Number of dead aphids 2nd: 18
- Number of dead aphids 3rd: 19
- Number of dead aphids 4th: 19
- Number of dead aphids average [1]: 18

SMILES: CS(=O)(=O)/N=C1\SCCN1Cc1ccc(Cl)nc1 [Example 21, 3-(2-chloro-5-pyridylmethyl)-2-[methylsulfonylimino]thiazolidine]
- Number of dead aphids 1st: 16
- Number of dead aphids 2nd: 18
- Number of dead aphids 3rd: 19
- Number of dead aphids 4th: 18
- Number of dead aphids average [1]: 17.75

SMILES: O=S(=O)(N=C1SCCN1Cc1ccc(Cl)nc1)c1ccc(Cl)cc1 [Example 23, 3-(2-chloro-5-pyridylmethyl)-2-[(4-chlorophenyl)sulfonylimino]thiazolidine]
- Number of dead aphids 1st: 18
- Number of dead aphids 2nd: 18
- Number of dead aphids 3rd: 16
- Number of dead aphids 4th: 18
- Number of dead aphids average [1]: 17.5

SMILES: O=S(=O)(N=C1NCCCN1Cc1ccc(Cl)nc1)c1ccc(Cl)cc1 [Example 18, 3-(2-chloro-5-pyridylmethyl)-2-[(4-chlorophenyl)sulfonylimino]tetrahydropyrimidine]
- Number of dead aphids 1st: 19
- Number of dead aphids 2nd: 19
- Number of dead aphids 3rd: 19
- Number of dead aphids 4th: 17
- Number of dead aphids average [1]: 18.5

SMILES: CS(=O)(=O)N=C1NCCCN1Cc1ccc(Cl)nc1 [Example 16, 3-(2-chloro-5-pyridylmethyl)-2-[methylsulfonylimino]tetrahydropyrimidine]
- Number of dead aphids 1st: 17
- Number of dead aphids 2nd: 17
- Number of dead aphids 3rd: 19
- Number of dead aphids 4th: 19
- Number of dead aphids average [1]: 18

SMILES: Cc1ccc(S(=O)(=O)N=C2NCCN2Cc2ccc(Cl)nc2)cc1 [Example 13, 3-(2-chloro-5-pyridylmethyl)-2-[(4-methylphenyl)sulfonylimino]imidazolidine]
- Number of dead aphids 1st: 15
- Number of dead aphids 2nd: 18
- Number of dead aphids 3rd: 16
- Number of dead aphids 4th: 17
- Number of dead aphids average [1]: 16.5

SMILES: O=S(=O)(N=C1NCCN1Cc1ccc(Cl)nc1)c1ccc(Cl)cc1 [Example 17, 3-(2-chloro-5-pyridylmethyl)-2-[(4-chlorophenyl)sulfonylimino]imidazolidine]
- Number of dead aphids 1st: 20
- Number of dead aphids 2nd: 18
- Number of dead aphids 3rd: 19
- Number of dead aphids 4th: 20
- Number of dead aphids average [1]: 19.25

SMILES: Cc1ccc(S(=O)(=O)N=C2OCCN2Cc2ccc(Cl)nc2)cc1 [Example 20, 3-(2-chloro-5-pyridylmethyl)-2-[(4-methylphenyl)sulfonylimino]oxazolidine]
- Number of dead aphids 1st: 17
- Number of dead aphids 2nd: 16
- Number of dead aphids 3rd: 18
- Number of dead aphids 4th: 15
- Number of dead aphids average [1]: 16.5

SMILES: Cc1ccc(S(=O)(=O)N=C2SCCN2Cc2ccc(Cl)nc2)cc1 [Example 19, 3-(2-chloro-5-pyridylmethyl)-2-[(4-methylphenyl)sulfonylimino]thiazolidine]
- Number of dead aphids 1st: 17
- Number of dead aphids 2nd: 16
- Number of dead aphids 3rd: 18
- Number of dead aphids 4th: 17
- Number of dead aphids average [1]: 17

SMILES: O=[N+]([O-])/N=C1\NCCN1Cc1ccc(Cl)nc1 [Comparative Example 1, imidachloprid, reference compound]
- Number of dead aphids 1st: 18
- Number of dead aphids 2nd: 17
- Number of dead aphids 3rd: 18
- Number of dead aphids 4th: 16
- Number of dead aphids average [1]: 17.25
- Effectiveness (higher value indicates greater effectivity, four Petri dishes, 20 aphids each, 9.6% w/w reagent diluted 1000 times, after 24 hours): 86.08

SMILES: O=S(=O)(N=C1OCCN1Cc1ccc(Cl)nc1)c1ccc(Cl)cc1 [Example 24, 3-(2-chloro-5-pyridylmethyl)-2-[(4-chlorophenyl)sulfonylimino]oxazolidine]
- Number of dead aphids 1st: 15
- Number of dead aphids 2nd: 18
- Number of dead aphids 3rd: 19
- Number of dead aphids 4th: 19
- Number of dead aphids average [1]: 17.75

SMILES: CS(=O)(=O)/N=C1\OCCN1Cc1ccc(Cl)nc1 [Example 22, 3-(2-chloro-5-pyridylmethyl)-2-[methylsulfonylimino]oxazolidine]
- Number of dead aphids 1st: 18
- Number of dead aphids 2nd: 16
- Number of dead aphids 3rd: 19
- Number of dead aphids 4th: 17
- Number of dead aphids average [1]: 17.5
